Legend:
EpiSCs = test: Conversion of EpiSCs to mESC-like state by chemical compounds (colony morphology, ALP, selection); assay type: cell-based, murine; conditions: for effect on EpiSCs under mESC culture condition supplemented with LIF: feeder cells, 0.5 μM A-83-01, 0.5 μM PD0325901, 0.1 μM PD173074, 3 μM CHIR99021 where present
Method: EpiSCs differentiated in conventional mESC growth medium supplemented with LIF (bottom left); EpiSCs differentiated in conventional mESC growth medium supplemented with LIF and 0.5 μM MEK inhibitor PD0325901, 0.1 μM FGFR inhibitor PD173074 and 3 μM GSK3 inhibitor CHIR99021 (m/MFGi) (bottom right). […] EpiSCs were trypsinized to single cells, and plated on feeder cells under the mESC self-renewal condition with supplements of the indicated chemical compounds for about 4 days to induce conversion, followed by another 4 days of selection. The culture was subsequently replated and further selected and expanded for another two weeks, during which time stable clones were picked.
To test this hypothesis, EpiSCs were trypsinized to single cells and plated under mESC self-renewal conditions, based on the notion that “converted” mESC-like cells within EpiSC colonies would be captured/selected and expanded under the conditions that promote self-renewal of mESCs but induce differentiation of EpiSCs. […] Given that the “spontaneous” conversion from EpiSCs to mESCs might be very inefficient, a stronger and more stringent differential self-renewal promoting and differentiation inducing condition might be required to select/capture and expand those “rare” converted mESC-like cells from EpiSCs (e.g. achieving cleaner phenotypic distinction and minimizing the overgrowth of differentiated EpiSCs).
EpiSCs (line EpiSC-5, male) were maintained on irradiated CF1 MEFs in human ESC medium supplemented with 10 ng/ml bFGF as described previously (Tesar et al., Nature 448, 196-199, 2007). EpiSCs were passaged every 3-4 days with 1 mg/ml collagenase type IV (Invitrogen). The R1 mESCs were cultured on irradiated CF1 MEFs with conventional mESC growth media, which consist of Knockout DMEM (Invitrogen) supplemented with 20% KSR (Invitrogen), 0.1 mM 2-ME (Sigma-Aldrich), 2 mM L-glutamine (Invitrogen), 0.1 mM NEAA (Invitrogen), and 10^3 units/ml recombinant murine leukemia inhibitory factor (LIF) (ESGRO, Millipore). The mESCs and converted cells were passaged every 3 days as a single cell suspension using 0.05% trypsin/EDTA and seeded at 1.0×10^4 cells per cm^2 for routine culture.

riPSCs = test: Maintaining the pluripotency of riPSCs in culture with small molecule combinations; assay type: cell-based, rat; conditions: 0.1 μM, added to the combination of PD0325901 and CHIR99021
Method: FIG. 5A-B. The effects of different small molecule combinations on maintaining the pluripotency of riPSCs in culture. riPSCs were trypsinized into single cells and seeded into 6-well plate at the density of 10^3 cells per well and treated with different inhibitor combinations. Five days latter, ALP staining was performed to visualize the riPSC colonies (A). The ALP positive colonies for each condition were counted from ten random 40× visual fields and the relative colony number was summarized in (B).
WB-F344, a diploid rat liver progenitor cell line (Grisham et al., Proc Soc Exp Biol Med 204, 270-279 (1993)), were transduced with Oct4, Sox2 and Klf4 by retroviruses and then split onto MEF feeder cells in the conventional mESC medium. Compact and alkaline phosphatase (ALP) positive ESC-like colonies were observed 10 days after transduction (the efficiency is about 0.4%) (FIG. 1A). […] Given the notion that small molecules can inhibit key differentiation-inducing pathways, we and others have previously identified and used small molecules to support mESC self-renewal in a more robust manner (Schugar et al., Gene Ther 15, 126-135 (2008); Xu et al., Nat Biotechnol 20, 1261-1264 (2002)). […]

BMP receptors = conditions: Tojo et al., 2005; cited from earlier work

Cc1c[nH]c(-c2cnc(NCCNc3ccc(C#N)cn3)nc2-c2ccc(Cl)cc2Cl)n1 [CHIR99021]
effect of adding CHIR99021 to the 2PD/LIF condition (EpiSCs; 3 μM CHIR99021): did not promote or capture the conversion of EpiSCs to mESC-like state

CCN(CC)CCCCNc1ncc2cc(-c3cc(OC)cc(OC)c3)c(NC(=O)NC(C)(C)C)nc2n1 [PD173074]
effect of including PD173074 in medium (riPSCs): didn't show further benefit

N[C@@H]1C[C@H]1c1ccccc1 [parnate]
effect on EpiSCs under mESC culture condition supplemented with LIF (EpiSCs): form more compact and domed colonies that express ALP
EpiSCs that formed small and compact colonies (EpiSCs; four days of 2 μM parnate treatment, mESC growth condition): 70-80%
cells that survived the selection as domed and ALP positive colonies (EpiSCs; parnate-treated cells selected with 2PD/LIF): roughly 20%

Cc1cccc(-c2nn(C(=S)Nc3ccccc3)cc2-c2ccnc3ccccc23)n1 [A-83-01, 3-(6-Methyl-2-pyridinyl)-N-phenyl-4-(4-quinolinyl)-1H-pyrazole-1-carbothioamide]
effect on EpiSCs under EpiSC/hESC culture condition supplemented with bFGF (EpiSCs; 0.5 μM): induced rapid differentiation of EpiSCs
colonies that could self-renew and maintain ALP activity (EpiSCs; A-83-01 treated colonies exposed to 2PD/LIF condition for selection): more than 50%
effect on EpiSCs under mESC culture condition supplemented with LIF (EpiSCs): form more compact and domed colonies that resemble mESC colony morphology and express ALP
cross inhibitory effect on the BMP receptors (BMP receptors): no cross inhibitory effect
